Data: patent US9326506B2, “Preparation method, agricultural composition and applications of natural brassinolide analogs” (CHENGDU NEWSUN CROPSCIENCE CO., LTD, priority 2012, dated 2016)

System: rice
Assay: Low temperature assay on rice seedlings
Type: in vivo
Method: According to a low temperature assay, we measured parameters including plant height, number of leaf, area of leaf, number of tiller, weight of root at low temperature to completely determine effects of the natural brassinolide analogues on the resistance to low temperature of a plant.
The natural brassinolide analogues, BR1, BR2, BR3, BR4, BR5 and BR6, used herein, were those prepared by the method of Example 1. Respectively the analogues were dissolved into 95% (V/V) ethanol solution, and then diluted with pure water to 1 mg/L, 0.1 mg/L, 0.01 mg/L, 0.001 mg/L and 0.0001 mg/L. In addition, pure water was used as a control.
After rice seeds were disinfected by using 5% sodium hypochlorite solution treatment, they were rinsed with distilled water until their pH>7, placed into a petri dish in a dark incubator, and cultured by using water at 30° C.±2° C. for 9 days. Then respectively the nine-day-old etiolated seedlings of rice were immersed in the above solutions containing different concentrations of the natural brassinolide analogues or pure water, and cultured at the temperature of 1° C., 2° C., 3° C., 4° C. and 5° C. for 24 hr. The parameters including plant height, area of leaf and weight of root after 3, 6, 9 and 12 days and number of leaf and number of tiller after 12 days were measured.

Work on `CC(C)C[C@@H](O)[C@H](O)[C@@H](C)[C@H]1CCC2C3CC(=O)C4C[C@H](O)[C@H](O)C[C@]4(C)C3CC[C@@]21C` (stereo partly shown) [BR5] yielded an Area of leaf (0.001 mg/l, 2 °C, 6 days) of 11.6 cm^2, a Height (0.001 mg/l, 2 °C, 6 days) of 7.1 cm and a Weight of root (0.001 mg/l, 2 °C, 6 days) of 3.0 g. It also gave an Area of leaf (0.001 mg/l, 2 °C, 9 days) of 12.2 cm^2, a Height (0.001 mg/l, 2 °C, 9 days) of 7.3 cm and a Weight of root (0.001 mg/l, 2 °C, 9 days) of 3.2 g. The Area of leaf (0.001 mg/l, 2 °C, 12 days) was 13.1 cm^2, the Height (0.001 mg/l, 2 °C, 12 days) was 7.3 cm and the Number of leaf (0.001 mg/l, 2 °C, 12 days) was 3. For the same compound, the Number of tiller (0.001 mg/l, 2 °C, 12 days) was 3, the Weight of root (0.001 mg/l, 2 °C, 12 days) was 3.9 g and the Area of leaf (0.001 mg/l, 3 °C, 3 days) was 10 cm^2. It also gave a Height (0.001 mg/l, 3 °C, 3 days) of 7 cm, a Weight of root (0.001 mg/l, 3 °C, 3 days) of 2.5 g and an Area of leaf (0.001 mg/l, 3 °C, 6 days) of 12 cm^2. The Height (0.001 mg/l, 3 °C, 6 days) was 7 cm, the Weight of root (0.001 mg/l, 3 °C, 6 days) was 2.6 g and the Area of leaf (0.001 mg/l, 3 °C, 9 days) was 12.4 cm^2. The Height (0.001 mg/l, 3 °C, 9 days) was 7.3 cm, the Weight of root (0.001 mg/l, 3 °C, 9 days) was 2.9 g and the Area of leaf (0.001 mg/l, 3 °C, 12 days) was 13 cm^2. For the same compound, the Height (0.001 mg/l, 3 °C, 12 days) was 7.4 cm, the Number of leaf (0.001 mg/l, 3 °C, 12 days) was 3 and the Number of tiller (0.001 mg/l, 3 °C, 12 days) was 2. It also gave a Weight of root (0.001 mg/l, 3 °C, 12 days) of 2.9 g, an Area of leaf (0.001 mg/l, 4 °C, 3 days) of 10 cm^2 and a Height (0.001 mg/l, 4 °C, 3 days) of 7.1 cm. The Weight of root (0.001 mg/l, 4 °C, 3 days) was 2.5 g, the Area of leaf (0.001 mg/l, 4 °C, 6 days) was 12.1 cm^2 and the Height (0.001 mg/l, 4 °C, 6 days) was 7.3 cm. It also gave a Weight of root (0.001 mg/l, 4 °C, 6 days) of 2.6 g, an Area of leaf (0.001 mg/l, 4 °C, 9 days) of 13 cm^2 and a Height (0.001 mg/l, 4 °C, 9 days) of 7.5 cm. It also gave a Weight of root (0.001 mg/l, 4 °C, 9 days) of 2.9 g, an Area of leaf (0.001 mg/l, 4 °C, 12 days) of 13.5 cm^2 and a Height (0.001 mg/l, 4 °C, 12 days) of 7.5 cm. For the same compound, the Number of leaf (0.001 mg/l, 4 °C, 12 days) was 3, the Number of tiller (0.001 mg/l, 4 °C, 12 days) was 2 and the Weight of root (0.001 mg/l, 4 °C, 12 days) was 2.9 g. The Area of leaf (0.001 mg/l, 5 °C, 3 days) was 10.2 cm^2, the Height (0.001 mg/l, 5 °C, 3 days) was 7.2 cm and the Weight of root (0.001 mg/l, 5 °C, 3 days) was 2.8 g. For the same compound, the Area of leaf (0.001 mg/l, 5 °C, 6 days) was 14 cm^2, the Height (0.001 mg/l, 5 °C, 6 days) was 7.5 cm and the Weight of root (0.001 mg/l, 5 °C, 6 days) was 2.9 g. For the same compound, the Area of leaf (0.001 mg/l, 5 °C, 9 days) was 15.4 cm^2, the Height (0.001 mg/l, 5 °C, 9 days) was 7.6 cm and the Weight of root (0.001 mg/l, 5 °C, 9 days) was 3.0 g. It also gave an Area of leaf (0.001 mg/l, 5 °C, 12 days) of 16 cm^2, a Height (0.001 mg/l, 5 °C, 12 days) of 8 cm and a Number of leaf (0.001 mg/l, 5 °C, 12 days) of 3. It also gave a Number of tiller (0.001 mg/l, 5 °C, 12 days) of 3, a Weight of root (0.001 mg/l, 5 °C, 12 days) of 3.4 g and an Area of leaf (0.01 mg/l, 1 °C, 3 days) of 10.1 cm^2. It also gave a Height (0.01 mg/l, 1 °C, 3 days) of 7.0 cm, a Weight of root (0.01 mg/l, 1 °C, 3 days) of 2.8 g and an Area of leaf (0.01 mg/l, 1 °C, 6 days) of 11.6 cm^2. It also gave a Height (0.01 mg/l, 1 °C, 6 days) of 7.2 cm, a Weight of root (0.01 mg/l, 1 °C, 6 days) of 3.0 g and an Area of leaf (0.01 mg/l, 1 °C, 9 days) of 12 cm^2. For the same compound, the Height (0.01 mg/l, 1 °C, 9 days) was 7.3 cm, the Weight of root (0.01 mg/l, 1 °C, 9 days) was 3.1 g and the Area of leaf (0.01 mg/l, 1 °C, 12 days) was 13.6 cm^2. For the same compound, the Height (0.01 mg/l, 1 °C, 12 days) was 7.5 cm, the Number of leaf (0.01 mg/l, 1 °C, 12 days) was 3 and the Number of tiller (0.01 mg/l, 1 °C, 12 days) was 3. It also gave a Weight of root (0.01 mg/l, 1 °C, 12 days) of 3.9 g, an Area of leaf (0.01 mg/l, 2 °C, 3 days) of 10.1 cm^2 and a Height (0.01 mg/l, 2 °C, 3 days) of 7.1 cm. For the same compound, the Weight of root (0.01 mg/l, 2 °C, 3 days) was 2.8 g, the Area of leaf (0.01 mg/l, 2 °C, 6 days) was 11.1 cm^2 and the Height (0.01 mg/l, 2 °C, 6 days) was 7.2 cm. It also gave a Weight of root (0.01 mg/l, 2 °C, 6 days) of 3 g, an Area of leaf (0.01 mg/l, 2 °C, 9 days) of 12.1 cm^2 and a Height (0.01 mg/l, 2 °C, 9 days) of 7.5 cm. For the same compound, the Weight of root (0.01 mg/l, 2 °C, 9 days) was 3 g, the Area of leaf (0.01 mg/l, 2 °C, 12 days) was 13.4 cm^2 and the Height (0.01 mg/l, 2 °C, 12 days) was 7.5 cm. The Number of leaf (0.01 mg/l, 2 °C, 12 days) was 3, the Number of tiller (0.01 mg/l, 2 °C, 12 days) was 3 and the Weight of root (0.01 mg/l, 2 °C, 12 days) was 3.2 g. For the same compound, the Area of leaf (0.01 mg/l, 3 °C, 3 days) was 10.2 cm^2, the Height (0.01 mg/l, 3 °C, 3 days) was 7.1 cm and the Weight of root (0.01 mg/l, 3 °C, 3 days) was 2.5 g. For the same compound, the Area of leaf (0.01 mg/l, 3 °C, 6 days) was 12 cm^2, the Height (0.01 mg/l, 3 °C, 6 days) was 7.2 cm and the Weight of root (0.01 mg/l, 3 °C, 6 days) was 2.6 g. For the same compound, the Area of leaf (0.01 mg/l, 3 °C, 9 days) was 12.2 cm^2.
